# Tests used:
# [1] = test system: primary bone marrow derived macrophages; experiment: Bone marrow derived macrophages, basal cytokine mRNA (RT-PCR) and secretion (ELISA); format: cell-based, mouse
# Method: (§1) FIG. 3: (A-E) Primary human adipocytes were obtained by differentiation of the stromal vascular cell fraction in the presence of glucose and fructose (GF, 1.5 g/L of each sugar; total carbohydrates 3 g/L) or sedoheptulose supplemented media, which was termed GFS (1 g/L of each sugar; total carbohydrates 3 g/L), for eight days. Subsequently mRNA levels of (A) CARKL, (B) adiponectin and (C) uncoupling protein 1 (UCP-1) was assessed by RT-PCR and compared between the groups. (D) Cellular oxygen consumption rates (OCR) and (E) extracellular acidification rates (ECAR) of adipocytes were recorded in the presence of indicated carbohydrate-mix (mean+/−S.D., n=9-11). (F) Tumor necrosis factor alpha (TNFa) and (G) interleukin 6 (IL-6) mRNA expression levels of mature murine adipocytes cultivated for three days in cell culture media containing either GF or GFS carbohydrate mix, or (H) IL-6 expression in primary murine hepatocytes, as well as (I) TNFa and (J) IL-6 mRNA levels in primary bone marrow derived macrophages, both cell types were pre-cultured for two days in GF or GFS media, were compared between respective groups. Secretion of (K) TNFa and (L) IL-6 cytokines over the period of two days was measured by ELISA in the supernatant of bone marrow derived macrophages. LPS-induced (100 ng/ml) secretion of (M) TNFa 2 hrs after activation and (N) IL-6 6 hrs after activation in the respective media by macrophages was also measured by ELISA. Data represents mean+/−S.D., n=3)
# Mouse bones were isolated from male wild-type and CARKL overexpressing mice and bone marrow wash flushed, washed and cleared from redblood cells by lysis, and subsequently differentiated in DMEM containing 25 mM glucose and 20 ng/ml M-CSF. After 4 days, cells for osteoclast differentiation were harvested and seeded in corning osteo assay plates with differentiation media (see below), and for primary bone marrow derived macrophages (BMDM) the medium was renewed and further supplemented with M-SCF for two days. Differentiated BMDM were then seeded in respective DMEM-media containing 10% FBS and indicated carbohydrate mixes at 3 g/L (glucose and fructose (GF), or glucose, fructose and sedoheptulose (GFS)) at least two days before experiments were performed.
# Briefly, total RNA was extracted and reverse-transcribed using commercial kits (QIAGEN, Applied Biosystems). Quantitative real-time PCRs were performed on an AbiPRISM 7900HT real-time cycler using iTaq SYBR Green Supermix with ROX (BioRad) to measure CARKL, adiponectin, UCP-1, TNFa, IL-6, MCP-1, and beta-actin expression as previously described (Haschemi et al., Cell Metab. 15 (2012), 813-826). Expression of target gene was normalized to beta-actin expression. Relative expression of target gene was calculated by the delta-delta CT method.
# [2] = test system: LPS-induced activated primary macrophages; experiment: LPS-induced cytokine secretion by bone marrow derived macrophages (ELISA); format: cell-based, mouse; details: LPS 100 ng/ml, GFS vs GF media
# Method: as §1, with “(F) Tumor necrosis factor alpha (TNFa) and (G) interleukin 6 (IL-6) mRNA expression levels of mature murine adipocytes cultivated for three days in cell culture media containing either GF or GFS carbohydrate mix, or (H) IL-6 expression in primary murine hepatocytes, as well as (I) TNFa and (J) IL-6 mRNA levels in primary bone marrow derived macrophages, both cell types were pre-cultured for two days in GF or GFS media, were compared between respective groups.” left out, “Data represents mean+/−S.D., n=3)” left out
# [3] = target: T1, recombinant sedoheptulose kinase (CARKL) (Homo sapiens, UniProt Q9UHJ6); experiment: Sedoheptulose kinase assay (ADP Quest, ADP formation); format: biochemical; details: constant amount of recombinant CARKL, constant ATP (150 μM), increased doses of sedoheptulose, FIG. 4A
# T1 construct: made in house; host or cells: E. coli
# T1 sequence (Q9UHJ6 1-478): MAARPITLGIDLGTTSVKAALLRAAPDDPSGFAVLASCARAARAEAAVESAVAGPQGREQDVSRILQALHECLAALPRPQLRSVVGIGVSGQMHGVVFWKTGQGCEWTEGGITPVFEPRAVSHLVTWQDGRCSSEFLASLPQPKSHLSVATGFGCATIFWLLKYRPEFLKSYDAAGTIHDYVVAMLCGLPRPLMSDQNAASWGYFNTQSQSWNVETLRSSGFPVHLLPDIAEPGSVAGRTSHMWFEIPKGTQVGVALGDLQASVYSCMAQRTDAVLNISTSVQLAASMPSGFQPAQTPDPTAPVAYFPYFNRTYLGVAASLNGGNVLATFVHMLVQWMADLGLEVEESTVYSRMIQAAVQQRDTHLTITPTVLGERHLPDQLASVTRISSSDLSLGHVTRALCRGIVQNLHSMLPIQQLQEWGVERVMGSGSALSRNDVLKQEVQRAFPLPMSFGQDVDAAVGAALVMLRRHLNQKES
# Method: FIG. 4: In an in vitro kinase assay, which employs ADP formation as activity readout, the sedoheptulose turnover rate at constant ATP (150 μM) concentration was enhanced either by (A) increasing sedoheptulose concentration or (B) by increasing the amount of the rate-limiting enzyme sedoheptulose kinase (CARKL). (C-E) Hepatocytes from wilt-type (WT) and sedoheptulose kinase CARKL overexpressing mice were pre-cultured for two days in GFS containing media before basal (C) ECAR and (D) OCR was recorded of these cells. (E) Hepatocytes from both genetic lineages (CARKL and WT controls) were cultivated in GF or GFS containing media and then pre-starved (no-carbohydrates) for 1 h to measure glucose-induced ECAR after the addition of glucose to reach a final concentration of 1 g/L in the culture media mean+/−S.D., n=7-11). As metabolic in vivo indicators (F) the respiratory quotient (RQ) and (G) energy expenditure (EE, kcal/day/kg^0.75) per activity by indirect calorimetry were determined and compared CARKL to wild-type (WT) littermates during day (8 am to 4 pm) and night (8 pm to 4 am). Data represent mean values, n=3, +/−SD. […] Blood glucose was measured before the injection (control) and 15, 30, 45 and 60 minutes after injection and graphed as relative value in % of control. […]
smiles,measurement,setting,value
"O=C(CO)[C@@H](O)[C@H](O)[C@H](O)[C@H](O)CO [sedoheptulose, Sedoheptulose]",basal TNFa mRNA expression,"[1]; pre-cultured two days in GFS vs GF media, FIG. 3I",blocked
same,basal IL-6 mRNA expression,"[1]; pre-cultured two days in GFS vs GF media, FIG. 3J",blocked
same,basal TNFa cytokine secretion,"[1]; supernatant over two days, ELISA, GFS vs GF media, FIG. 3K",blocked
same,basal IL-6 cytokine secretion,"[1]; supernatant over two days, ELISA, GFS vs GF media, FIG. 3L",blocked
same,reduction of LPS-induced TNFa secretion,"[2]; 2 hrs after activation, FIG. 3M",approximately 40%
same,LPS-induced IL-6 secretion,"[2]; 6 hrs after activation, FIG. 3N",comparable levels as GF treated macrophages
same,sedoheptulose turnover rates as measured by ADP formation,[3],enhanced

# — patent US10660910B2, “Use of sedoheptulose for prevention or treatment of inflammation” (C7 SUGAR GMBH, priority 2013, dated 2020)
